Experimental findings from US11814367B2, “Inhibitors of glycogen synthase 1 (GYS1) and methods of use thereof” (Maze Therapeutics, Inc., priority 2021, dated 2023) are described below.

A value given as a limit tells only on which side of the number the result lay.

In experiment [1] the test system is hGYS1 enzyme / glycogen synthesis in HeLa cells. The experiment can be described thus: GYS1 cell based assay (glycogen synthesis, Glucose-glo). Further details: species or system human. Particulars: Homo sapiens, HeLa, 24 h, 24 h incubation, 20 mM glucose, geometric mean of at least 2 runs. A digest of the protocol:
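HeLa cells starved 24 h in medium containing only 1× Glutamax were plated onto compound in medium with 20 mM glucose (1% DMSO final) for 24 h, 37 °C, 5% CO2. Acid lysates were Tris-quenched, glucoamylase-digested (pH 5.3, 1 h, 37 °C) and read by Glucose-glo luminescence. IC50 came from Hill fits, as geometric mean of ≥2 runs.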

Experiment [2] has as its target hGYS1 enzyme (recombinant hGYS1/GN1 protein) (Homo sapiens (Human), UniProt P13807). The experiment can be described thus: GYS1 coupled enzyme assay (PK/LDH). Particulars: hGYS1/GN1 50 nM, UDP-Glucose 0.8 mM, G6P 1 mM; geometric mean of at least 2 runs. It is filed as biochemical.
The target of experiment [3] is hGYS2 enzyme (recombinant hGYS2/GN1 protein) (Homo sapiens (Human), UniProt P54840). The experiment can be described thus: GYS2 coupled enzyme assay (PK/LDH). Format: biochemical. The conditions noted are these: geometric mean of at least 2 assay runs on separate days, read-out: Avg_IC50. In outline: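 Continuous PK/LDH-coupled readout of NADH loss at 340 nm over 10 min, with 200 nM hGYS2/GN1 and 2 mM each of UDP-glucose, glucose-6-phosphate and PEP, in 50 mM Tris pH 7.5 with 0.2% glycogen and 2.5% DMSO. Slopes were normalized to controls and IC50s fit to a Hill curve from duplicates.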
hGYS2 enzyme (recombinant hGYS2/GN1 protein), sequence (P54840 whole entry): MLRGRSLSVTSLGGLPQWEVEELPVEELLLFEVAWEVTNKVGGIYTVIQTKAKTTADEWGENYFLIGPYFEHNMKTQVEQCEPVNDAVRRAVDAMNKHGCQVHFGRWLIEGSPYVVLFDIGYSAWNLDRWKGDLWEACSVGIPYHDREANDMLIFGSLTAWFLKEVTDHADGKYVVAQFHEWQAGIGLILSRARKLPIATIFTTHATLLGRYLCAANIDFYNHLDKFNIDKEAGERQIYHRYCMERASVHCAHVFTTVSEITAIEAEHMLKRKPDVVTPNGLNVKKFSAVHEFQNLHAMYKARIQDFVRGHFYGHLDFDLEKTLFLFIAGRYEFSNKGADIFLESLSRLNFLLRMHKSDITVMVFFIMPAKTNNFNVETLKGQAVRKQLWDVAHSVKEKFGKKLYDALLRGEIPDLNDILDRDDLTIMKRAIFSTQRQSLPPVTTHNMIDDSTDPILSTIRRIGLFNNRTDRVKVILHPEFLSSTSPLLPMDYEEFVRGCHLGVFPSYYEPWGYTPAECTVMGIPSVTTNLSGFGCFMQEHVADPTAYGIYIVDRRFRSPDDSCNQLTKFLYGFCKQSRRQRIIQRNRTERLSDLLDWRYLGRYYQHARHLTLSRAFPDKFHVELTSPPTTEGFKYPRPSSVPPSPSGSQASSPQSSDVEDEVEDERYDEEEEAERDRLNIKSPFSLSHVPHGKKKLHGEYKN
hGYS2 enzyme (recombinant hGYS2/GN1 protein), sequence (P46976 whole entry partner): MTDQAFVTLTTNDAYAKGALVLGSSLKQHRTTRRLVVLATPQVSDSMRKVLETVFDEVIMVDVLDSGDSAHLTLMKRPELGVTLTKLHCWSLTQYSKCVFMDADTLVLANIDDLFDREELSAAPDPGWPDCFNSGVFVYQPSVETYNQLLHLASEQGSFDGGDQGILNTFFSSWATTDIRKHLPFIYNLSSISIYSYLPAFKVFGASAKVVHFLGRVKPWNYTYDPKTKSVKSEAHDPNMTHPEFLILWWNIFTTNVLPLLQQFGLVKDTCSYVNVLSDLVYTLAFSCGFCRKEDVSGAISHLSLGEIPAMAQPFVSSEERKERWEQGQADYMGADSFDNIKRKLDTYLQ

hGYS1 enzyme (recombinant hGYS1/GN1 protein), sequence (P13807 whole entry): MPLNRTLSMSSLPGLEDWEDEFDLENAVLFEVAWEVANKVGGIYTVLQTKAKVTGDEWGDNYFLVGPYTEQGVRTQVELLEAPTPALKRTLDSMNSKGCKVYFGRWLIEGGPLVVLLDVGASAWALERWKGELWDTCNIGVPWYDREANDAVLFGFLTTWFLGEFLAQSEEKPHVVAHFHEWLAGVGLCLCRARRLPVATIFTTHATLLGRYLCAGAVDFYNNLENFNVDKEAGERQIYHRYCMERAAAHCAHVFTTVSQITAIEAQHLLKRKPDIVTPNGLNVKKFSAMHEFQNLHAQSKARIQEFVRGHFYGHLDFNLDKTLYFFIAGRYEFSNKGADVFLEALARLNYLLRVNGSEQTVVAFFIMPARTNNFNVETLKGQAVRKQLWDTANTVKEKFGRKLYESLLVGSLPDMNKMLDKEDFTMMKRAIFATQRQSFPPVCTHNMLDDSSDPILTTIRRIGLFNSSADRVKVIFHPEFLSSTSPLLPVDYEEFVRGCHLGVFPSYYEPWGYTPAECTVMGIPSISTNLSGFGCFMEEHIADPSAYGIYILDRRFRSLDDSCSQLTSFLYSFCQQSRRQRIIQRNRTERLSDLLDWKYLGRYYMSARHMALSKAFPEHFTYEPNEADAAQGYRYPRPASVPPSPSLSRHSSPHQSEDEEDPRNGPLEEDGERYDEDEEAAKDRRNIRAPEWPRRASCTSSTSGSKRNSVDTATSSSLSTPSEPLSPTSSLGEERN
hGYS1 enzyme (recombinant hGYS1/GN1 protein), sequence (P46976 whole entry partner): as the sequence (P46976 whole entry partner) above

As for `O=C(N[C@@H](c1ccccc1)c1ccc(C2CC2)c(F)c1)[C@@H]1C[C@@H](F)CN1C(=O)CNc1cnccn1` [Compound 471, (2S,4R)-N-[(S)-(4-cyclopropyl-3-fluorophenyl)(phenyl)methyl]-4-fluoro-1-{2-[(pyrazin-2-yl)amino]acetyl}pyrrolidine-2-carboxamide], the values for the IC50 in experiment [1], in experiment [2] and in experiment [3] were 700 nM, 29 nM and above 100000 nM, respectively.

On to `Cc1nccc(NCC(=O)N2C[C@H](F)C[C@H]2C(=O)N[C@@H](c2ccccc2)c2ccc(C3CC3)c(F)c2)n1` [Compound 472, (2S,4R)-N-[(S)-(4-cyclopropyl-3-fluorophenyl)(phenyl)methyl]-4-fluoro-1-{2-[(2-methylpyrimidin-4-yl)amino]acetyl} pyrrolidine-2-carboxamide], for which the IC50 was 540 nM in experiment [1], 22 nM in experiment [2] and above 100000 nM in experiment [3].

`CCn1ncc(N(C)CC(=O)N2C[C@H](F)C[C@H]2C(=O)N[C@@H](c2ccccc2)c2ccc(C3CC3)c(F)c2)n1` [Compound 474, (2S,4R)-N-[(S)-(4-cyclopropyl-3-fluorophenyl)(phenyl)methyl]-1-{2-[(2-ethyl-2H-1,2,3-triazol-4-yl)(methyl)amino]acetyl}-4-fluoropyrrolidine-2-carboxamide]: the figures for the IC50 in experiment [1], in experiment [2] and in experiment [3] were 880 nM, 43 nM and above 100000 nM, respectively.

Turning to `CN(CC(=O)N1C[C@H](F)C[C@H]1C(=O)N[C@@H](c1ccccc1)c1ccc(C2CC2)c(F)c1)c1cnccn1` [Compound 475, (2S,4R)-N-[(S)-(4-cyclopropyl-3-fluorophenyl)(phenyl)methyl]-4-fluoro-1-{2-[methyl(pyrazin-2-yl)amino]acetyl} pyrrolidine-2-carboxamide], the IC50 in experiment [1] is 1290 nM; in experiment [2], 77 nM; in experiment [3], above 100000 nM.

For the compound `Cc1nccc(N(C)CC(=O)N2C[C@H](F)C[C@H]2C(=O)N[C@@H](c2ccccc2)c2ccc(C3CC3)c(F)c2)n1` [Compound 476, (2S,4R)-N-[(S)-(4-cyclopropyl-3-fluorophenyl)(phenyl)methyl]-4-fluoro-1-{2-[methyl(2-methylpyrimidin-4-yl)amino]acetyl} pyrrolidine-2-carboxamide], the IC50 was 900 nM in experiment [1], 39 nM in experiment [2] and above 100000 nM in experiment [3].

For `Cc1ccc2c(CC(=O)N3C[C@H](F)C[C@H]3C(=O)N[C@@H](c3ccccc3)c3ccc(C4CC4)c(F)c3)cccc2n1` [Compound 477, (2S,4R)-N-[(S)-(4-cyclopropyl-3-fluorophenyl)(phenyl)methyl]-4-fluoro-1-[2-(2-methylquinolin-5-yl)acetyl]pyrrolidine-2-carboxamide], the values for the IC50 in experiment [1], in experiment [2] and in experiment [3] were 630 nM, 20 nM and above 100000 nM, respectively.

With `O=C(N[C@@H](c1ccccc1)c1ccc(C2CC2)c(F)c1)[C@@H]1C[C@@H](F)CN1C(=O)Cc1ccc2ncnn2c1` [Compound 478, (2S,4R)-N-[(S)-(4-cyclopropyl-3-fluorophenyl)(phenyl)methyl]-4-fluoro-1-(2-{[1,2,4]triazolo[1,5-a]pyridin-6-yl}acetyl) pyrrolidine-2-carboxamide], the IC50 in experiment [1] was found to be 1190 nM; in experiment [2], 69 nM; in experiment [3] it was 68200 nM.

On to `O=C(N[C@@H](c1ccccc1)c1ccc(C2CC2)c(F)c1)[C@@H]1C[C@@H](F)CN1C(=O)Cc1cnc2ccccn12` [Compound 479, (2S,4R)-N-[(S)-(4-cyclopropyl-3-fluorophenyl)(phenyl)methyl]-4-fluoro-1-(2-{imidazo[1,2-a]pyridin-3-yl}acetyl)pyrrolidine-2-carboxamide], for which the IC50 in experiment [1] is 1430 nM; in experiment [2] it was 55 nM; in experiment [3], above 100000 nM.

Regarding `Cc1ccc2cc(CC(=O)N3C[C@H](F)C[C@H]3C(=O)N[C@@H](c3ccccc3)c3ccc(C4CC4)c(F)c3)ccc2n1` [Compound 480, (2S,4R)-N-[(S)-(4-cyclopropyl-3-fluorophenyl)(phenyl)methyl]-4-fluoro-1-[2-(2-methylquinolin-6-yl)acetyl]pyrrolidine-2-carboxamide], the values for the IC50 in experiment [1], in experiment [2] and in experiment [3] were 1120 nM, 79 nM and above 100000 nM, respectively.

Regarding `O=C(N[C@@H](c1ccccc1)c1ccc(C2CC2)c(F)c1)[C@@H]1C[C@@H](F)CN1C(=O)Cn1cnnc1` [Compound 481, (2S,4R)-N-[(S)-(4-cyclopropyl-3-fluorophenyl)(phenyl)methyl]-4-fluoro-1-[2-(4H-1,2,4-triazol-4-yl)acetyl]pyrrolidine-2-carboxamide], the IC50 is 7770 nM in experiment [1], 247 nM in experiment [2] and above 100000 nM in experiment [3].

Take `O=C(N[C@@H](c1ccccc1)c1ccc(C2CC2)c(F)c1)[C@@H]1C[C@@H](F)CN1C(=O)Cc1cccn2c(=O)[nH]nc12` [Compound 482, (2S,4R)-N-[(S)-(4-cyclopropyl-3-fluorophenyl)(phenyl)methyl]-4-fluoro-1-(2-{3-oxo-2H,3H-[1,2,4]triazolo[4,3-a]pyridin-8-yl}acetyl) pyrrolidine-2-carboxamide]: the IC50 in experiment [1] was 1410 nM; in experiment [2] it was 68 nM; in experiment [3], above 100000 nM.

Turning to `CN(C)c1cnn(CC(=O)N2C[C@H](F)C[C@H]2C(=O)N[C@@H](c2ccccc2)c2ccc(C3CC3)c(F)c2)n1` [Compound 483, (2S,4R)-N-[(S)-(4-cyclopropyl-3-fluorophenyl)(phenyl)methyl]-1-{2-[4-(dimethylamino)-2H-1,2,3-triazol-2-yl]acetyl}-4-fluoropyrrolidine-2-carboxamide], the IC50 is 720 nM in experiment [1], 49 nM in experiment [2] and above 100000 nM in experiment [3].

On to `CN(C)c1cn(CC(=O)N2C[C@H](F)C[C@H]2C(=O)N[C@@H](c2ccccc2)c2ccc(C3CC3)c(F)c2)nn1` [Compound 484, (2S,4R)-N-[(S)-(4-cyclopropyl-3-fluorophenyl)(phenyl)methyl]-1-{2-[4-(dimethylamino)-1H-1,2,3-triazol-1-yl]acetyl}-4-fluoropyrrolidine-2-carboxamide], for which the figures for the IC50 in experiment [1], in experiment [2] and in experiment [3] were 820 nM, 66 nM and above 100000 nM, respectively.

Take `CC(C)(C)OC(=O)NCc1nnc(CC(=O)N2C[C@H](F)C[C@H]2C(=O)N[C@@H](c2ccccc2)c2ccc(C3CC3)c(F)c2)o1` [Compound 485, tert-butyl N-[(5-{2-[(2S,4R)-2-{[(S)-(4-cyclopropyl-3-fluorophenyl)(phenyl)methyl]carbamoyl}-4-fluoropyrrolidin-1-yl]-2-oxoethyl}-1,3,4-oxadiazol-2-yl)methyl]carbamate]: the IC50 was 3720 nM in experiment [1], 210 nM in experiment [2] and above 100000 nM in experiment [3].

For `CN1CCN(C(=O)NCC(=O)N2C[C@H](F)C[C@H]2C(=O)N[C@@H](c2ccccc2)c2ccc(C3CC3)c(F)c2)CC1` [Compound 486, N-{2-[(2S,4R)-2-{[(S)-(4-cyclopropyl-3-fluorophenyl)(phenyl)methyl]carbamoyl}-4-fluoropyrrolidin-1-yl]-2-oxoethyl}-4-methylpiperazine-1-carboxamide], the IC50 in experiment [1] was 1020 nM; in experiment [2], 41 nM; in experiment [3] it was above 100000 nM.

With `O=C(N[C@@H](c1ccccc1)c1ccc(C2CC2)c(F)c1)[C@@H]1C[C@@H](F)CN1C(=O)CNC(=O)N1CCN(CC(F)(F)F)CC1` [Compound 487, N-{2-[(2S,4R)-2-{[(S)-(4-cyclopropyl-3-fluorophenyl)(phenyl)methyl]carbamoyl}-4-fluoropyrrolidin-1-yl]-2-oxoethyl}-4-(2,2,2-trifluoroethyl) piperazine-1-carboxamide], the IC50 in experiment [1] is 2090 nM; in experiment [2] it was 68 nM; in experiment [3], above 100000 nM.

Turning to `COCCN1CCN(C(=O)NCC(=O)N2C[C@H](F)C[C@H]2C(=O)N[C@@H](c2ccccc2)c2ccc(C3CC3)c(F)c2)CC1` [Compound 488, N-{2-[(2S,4R)-2-{[(S)-(4-cyclopropyl-3-fluorophenyl)(phenyl)methyl]carbamoyl}-4-fluoropyrrolidin-1-yl]-2-oxoethyl}-4-(2-methoxyethyl) piperazine-1-carboxamide], the IC50 in experiment [1] was 880 nM; in experiment [2], 31 nM; in experiment [3], above 100000 nM.

For `O=C(N[C@@H](c1ccccc1)c1ccc(C2CC2)c(F)c1)[C@@H]1C[C@@H](F)CN1C(=O)CNC(=O)N1CCN(CC2CC2)CC1` [Compound 490, N-{2-[(2S,4R)-2-{[(S)-(4-cyclopropyl-3-fluorophenyl)(phenyl)methyl]carbamoyl}-4-fluoropyrrolidin-1-yl]-2-oxoethyl}-4-(cyclopropylmethyl) piperazine-1-carboxamide], the figures for the IC50 in experiment [1], in experiment [2] and in experiment [3] were 2870 nM, 52 nM and above 100000 nM, respectively.

`O=C(N[C@@H](c1ccccc1)c1ccc(C2CC2)c(F)c1)[C@@H]1C[C@@H](F)CN1C(=O)Cc1n[nH]c(=O)[nH]1` [Compound 491, (2S,4R)-N-[(S)-(4-cyclopropyl-3-fluorophenyl)(phenyl)methyl]-4-fluoro-1-[2-(5-oxo-4,5-dihydro-1H-1,2,4-triazol-3-yl)acetyl]pyrrolidine-2-carboxamide]: the IC50 is 5550 nM in experiment [1], 93 nM in experiment [2] and above 100000 nM in experiment [3].
